In patent US20080076824A1, “Compounds That Inhibit Replication Of Human Immunodeficiency Virus” (priority 2004, published 2008):
Several values for one entry are separate records, joined by “and”; a condition that tells them apart may be missing. Equal values may be shown once. Where a name gives a salt, the structure may show the parent alone.

What was measured:
[1] = Microdose study of 14C-AlphaHGA in healthy volunteers, urine pharmacokinetics (AMS); format: in vivo, human; conditions: for cumulative recovery of the dose in the urine over 24 hr: range; for AUCTmax / AUClast / Dlast / Dmax / Tmax / Tfirst / Tlast: urine
Protocol: In this example, the pharmacokinetics (PK) and oral bioavailability of AlphaHGA in adult healthy volunteers following a single ‘microdose’ in a sequence-randomized, cross-over study design (two periods 7 days apart) was determined. Clinical experiments were conducted with low-level radiolabelled (^14C) AlphaHGA administered intravenously (IV) orally (PO) with serial blood and urine samples were collected for concentration analysis utilizing accelerator mass spectrometry (AMS).
Accordingly, eight subjects were enrolled into a single dose cross-over study. The subjects were randomly assigned to one of two administration sequences. Subjects that were assigned to sequence 1 received AlphaHGA as an oral preparation first (Period 1) followed by the intravenous (IV) preparation 1 week later (Period 2). Subjects assigned to sequence 2 received AlphaHGA as an intravenous preparation first followed by the oral preparation 1 week later. Four subjects were assigned to sequence 1 and four subjects were assigned to sequence 2.
For both oral and IV doses subjects were administered 100 nCi (3.7 Kbq) of alphaHGA, which was determined to contain 1.602888×10ˆ6 fmol of ^14C. The specific activity of each dose was 46.619 MBq/mol (or 1.260 mCi/mol). A stock blend of ^14C-labelled alphaHGA was produced prior to the first study period. The actual formulations used for dosing were prepared on the morning prior to each study period. The infusion was a single bolus injection with both the infusion and flush were completed in less than 30 seconds.
Urine samples were collected at pre-dose and during post-dose time intervals: 0 to 4, 4 to 8, 8 to 12, 12 to 16, and 16 to 24 hours. All urine collections were obtained. Cumulative urine voidings for the specified time intervals were collected in standard collection containers without additional modifiers or preservatives
Plasma specimens (30 μL) were analyzed directly via the combustive procedure without further chemical manipulation. For the purposes of calculating ^14C concentration per volume of plasma, a general carbon content of 45% (dry mass) was applied. The urine was mixed with equal volumes (0.5 mL) of a sucrose carbon diluent solution (200 g/L) and mixed by inversion in a disposable polypropylene centrifuge tube. A 20-μL sample was graphitized for AMS analysis according to standard procedures. The mass fraction of the urine represented in the measured sample was inverted and multipled by the ^14C contents above background derived from the AMS measurement to calculate the ^14C content in the total urine void. A density value of 1 g/mL for urine was assumed to calculate its volume from the recorded masses.
Area-under-the-plasma-concentration-time curve from time zero to the last quantified concentration (AUClast), was calculated by the linear trapezoidal method from the observed concentrations. Area-under-the concentration-time curve from time zero to infinity (AUCinf) was obtained as the sum of AUClast and the extrapolation term Clast/λz, where Clast denotes the last observed quantifiable concentration. The percentage of AUCinf obtained by extrapolation (AUC % extrap) was calculated as [(AUCinf−AUClast)/AUCinf]*100. It should be noted that the area for the IV plasma data will result in an underestimation of the AUC in the first trapezoid because the concentration at time 0 was set to 0 and there is not reasonable way to impute a value at time 0. Area-under-the-concentration-time curve from time zero to the maximum concentration (AUCTmax) was calculated by the linear trapezoidal method. […]. This approach was necessary given the nature of the parameters requested by the sponsor.
Values for the following PK parameters were estimated from urine levels of AlphaHGA during the various time intervals. […]

[2] = tested on: HIV (SF2 virus); assay: HIV infectivity assay, SF2-infected H9 cells, visible syncytia; format: cell-based; conditions: for Visible syncytia: H9/SF2, day 11
[3] = tested on: C8166 cells; assay: Cytotoxicity (CC50) in C8166 cells; format: cell-based
[4] = route iv, individual subjects 1-8, period 1 or 2, hydrochloride, dosing period 1
[5] = route iv, individual subjects 1-8, period 1 or 2, hydrochloride, dosing period 2
[6] = route po, individual subjects 1-8, period 1 or 2, dosing period 1
[7] = route po, individual subjects 1-8, period 1 or 2, dosing period 2
[8] = route po, individual subjects 1-8, period 1 or 2, hydrochloride, dosing period 1
[9] = route po, individual subjects 1-8, period 1 or 2, hydrochloride, dosing period 2

**Q.** What does the source list for `NC(=O)C(N)O` (stereo not drawn) [AlphaHGA, α-Hydroxy-glycinamide hydrochloride]?
**A.** cumulative recovery of the dose in the urine over 24 hr, mean ([1]; IV administration): 63.7; cumulative recovery of the dose in the urine over 24 hr ([1]; IV administration): 35-100%; cumulative recovery of the dose in the urine over 24 hr ([1]; oral administration): 34-100%; AUCTmax ([1]; Period 1, Max): 748180 fmol·h; AUClast ([1]; Period 1, Max): 2934335 fmol·h; Dlast ([1]; Period 1, Max): 41355 fmol; Dmax ([1]; Period 1, Max): 374090 fmol; AUCTmax ([1]; Period 1, Mean): 654984 fmol·h; AUClast ([1]; Period 1, Mean): 2575235 fmol·h; Dlast ([1]; Period 1, Mean): 29774 fmol; Dmax ([1]; Period 1, Mean): 327492 fmol; AUCTmax ([1]; Period 1, Min): 459180 fmol·h; AUClast ([1]; Period 1, Min): 2239453 fmol·h; Dlast ([1]; Period 1, Min): 19395 fmol; Dmax ([1]; Period 1, Min): 229590 fmol; AUCTmax ([1]; Period 2, Max): 1882171 fmol·h; AUClast ([1]; Period 2, Max): 6993866 fmol·h; Dlast ([1]; Period 2, Max): 133040 fmol; Dmax ([1]; Period 2, Max): 941085 fmol; AUCTmax ([1]; Period 2, Mean): 1437891 fmol·h; AUClast ([1]; Period 2, Mean): 6007590 fmol·h; Dlast ([1]; Period 2, Mean): 98450 fmol; Dmax ([1]; Period 2, Mean): 718945 fmol; AUCTmax ([1]; Period 2, Min): 1207722 fmol·h; AUClast ([1]; Period 2, Min): 5220702 fmol·h; Dlast ([1]; Period 2, Min): 48888 fmol; Dmax ([1]; Period 2, Min): 603861 fmol; AUCTmax ([1]; Route iv, Max): 1489152 fmol·h; AUClast ([1]; Route iv, Max): 6540408 fmol·h; Dlast ([1]; Route iv, Max): 114767 fmol; Dmax ([1]; Route iv, Max): 744576 fmol; AUCTmax ([1]; Route iv, Mean): 964045 fmol·h; AUClast ([1]; Route iv, Mean): 4155954 fmol·h; Dlast ([1]; Route iv, Mean): 61864 fmol; Dmax ([1]; Route iv, Mean): 482022 fmol; AUCTmax ([1]; Route iv, Min): 459180 fmol·h; AUClast ([1]; Route iv, Min): 2368127 fmol·h; Dlast ([1]; Route iv, Min): 19716 fmol; Dmax ([1]; Route iv, Min): 229590 fmol; AUCTmax ([1]; Route po, Max): 1882171 fmol·h; AUClast ([1]; Route po, Max): 6993866 fmol·h; Dlast ([1]; Route po, Max): 133040 fmol; Dmax ([1]; Route po, Max): 941085 fmol; AUCTmax ([1]; Route po, Mean): 1128830 fmol·h; AUClast ([1]; Route po, Mean): 4426871 fmol·h; Dlast ([1]; Route po, Mean): 66360 fmol; Dmax ([1]; Route po, Mean): 564415 fmol; AUCTmax ([1]; Route po, Min): 710260 fmol·h; AUClast ([1]; Route po, Min): 2239453 fmol·h; Dlast ([1]; Route po, Min): 19395 fmol; Dmax ([1]; Route po, Min): 355130 fmol; Tmax ([1]; route iv, individual subjects 1-8, period 1 or 2): 4 h; Tfirst ([1]; route iv, individual subjects 1-8, period 1 or 2, dosing period 1): 4 h; Tfirst ([1]; route iv, individual subjects 1-8, period 1 or 2, dosing period 2): 4 h; AUCTmax [1, 4]: 684594 fmol·h and 543376 fmol·h and 639322 fmol·h and 459180 fmol·h; AUClast [1, 4]: 2934335 fmol·h and 2573446 fmol·h and 2551259 fmol·h and 2368127 fmol·h; Dlast [1, 4]: 32699 fmol and 40072 fmol and 41355 fmol and 19716 fmol; Dmax [1, 4]: 342297 fmol and 271688 fmol and 319661 fmol and 229590 fmol; Tlast [1, 4]: 24 h; AUCTmax [1, 5]: 1207722 fmol·h and 1479193 fmol·h and 1489152 fmol·h and 1209818 fmol·h; AUClast [1, 5]: 5505102 fmol·h and 5554250 fmol·h and 6540408 fmol·h and 5220702 fmol·h; Dlast [1, 5]: 48888 fmol and 88098 fmol and 109317 fmol and 114767 fmol; Dmax [1, 5]: 603861 fmol and 739597 fmol and 744576 fmol and 604909 fmol; Tlast [1, 5]: 24 hr (3×) and 16 hr; Tmax ([1]; route po, individual subjects 1-8, period 1 or 2): 4 h; Tfirst [1, 6]: 4 h; Tlast [1, 6]: 24 h; Tfirst [1, 7]: 4 h; Tlast [1, 7]: 24 h; AUCTmax [1, 8]: 727839 fmol·h and 710260 fmol·h and 727119 fmol·h and 748180 fmol·h; AUClast [1, 8]: 2696170 fmol·h and 2239453 fmol·h and 2618588 fmol·h and 2620500 fmol·h; Dlast [1, 8]: 22280 fmol and 30936 fmol and 19395 fmol and 31737 fmol; Dmax [1, 8]: 363920 fmol and 355130 fmol and 363559 fmol and 374090 fmol; AUCTmax [1, 9]: 1882171 fmol·h and 1326533 fmol·h and 1425912 fmol·h and 1482625 fmol·h; AUClast [1, 9]: 6993866 fmol·h and 6127092 fmol·h and 6093252 fmol·h and 6026045 fmol·h; Dlast [1, 9]: 80465 fmol and 133040 fmol and 109798 fmol and 103226 fmol; Dmax [1, 9]: 941085 fmol and 663266 fmol and 712956 fmol and 741313 fmol

**Q.** Which Visible syncytia ([2]; 100 μM in boiled RPMI++) does the source give for `NCC(N)=O` [G-NH2, glycinamide] here?
**A.** positive

**Q.** And the Visible syncytia ([2]; 100 μM in normal RPMI++ (10% FCS))?
**A.** negative

**Q.** And the “inhibition of replication and/or propagation of HIV by visual inspection” value ([2]; boiled fetal calf serum)?
**A.** did not

**Q.** And the CC50 [3]?
**A.** > 2000 µM
